According to ChEMBL document CHEMBL1154147, “Antityrosinase and antioxidant effects of ent-kaurane diterpenes from leaves of Broussonetia papyrifera” (J Nat Prod, 2008):

Legend:
[1] = biological target: T1, Tyrosinase (Agaricus bisporus, UniProt O42713)
T1 sequence (O42713 whole entry): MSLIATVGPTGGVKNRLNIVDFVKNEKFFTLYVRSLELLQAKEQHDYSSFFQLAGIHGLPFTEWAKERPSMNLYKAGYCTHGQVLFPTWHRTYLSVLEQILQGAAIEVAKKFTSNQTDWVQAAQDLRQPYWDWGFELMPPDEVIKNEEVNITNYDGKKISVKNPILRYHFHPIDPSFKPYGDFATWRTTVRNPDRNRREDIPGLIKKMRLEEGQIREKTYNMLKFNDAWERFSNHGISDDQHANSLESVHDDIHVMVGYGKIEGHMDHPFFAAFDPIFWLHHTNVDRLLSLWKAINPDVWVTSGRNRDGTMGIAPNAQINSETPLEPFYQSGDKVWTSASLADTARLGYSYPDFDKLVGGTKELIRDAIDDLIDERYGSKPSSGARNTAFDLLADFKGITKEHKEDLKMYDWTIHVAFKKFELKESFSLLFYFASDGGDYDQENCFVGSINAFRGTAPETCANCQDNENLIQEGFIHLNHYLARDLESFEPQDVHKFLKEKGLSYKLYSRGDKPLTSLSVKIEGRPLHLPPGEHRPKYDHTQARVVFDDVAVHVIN
Description: (§1) Inhibition of mushroom tyrosinase after 90 mins

[2] = test system: Radical scavenging activity
Description: Antioxidant activity assessed as DPPH free radical scavenging activity after 30 mins

[3] = biological target: T1, Tyrosinase; remark: listed apart in the source
Description: (§2) Inhibition of mushroom tyrosinase after 30 mins

[4] = biological target: T1, Tyrosinase; remark: listed apart in the source
Description: as §2

[5] = biological target: T1, Tyrosinase; remark: listed apart in the source
Description: as §1

Question: For O=c1cc(-c2ccc(O)cc2)oc2cc(O)cc(O)c12 [APIGENIN], which IC50 [1] is on record?
Answer: 305 µM

Question: And the IC50 [2]?
Answer: Not Active

Question: And the IC50 [3]?
Answer: 305 µM

Question: CC1(C)CCC[C@]2(C)[C@@H]1C(=O)[C@@H](O)[C@@]13C[C@H](CC[C@@H]21)[C@@](O)(CO)C3 [BROUSSONETONE A] was tested. Which IC50 [1] did it give?
Answer: 322 µM

Question: And the IC50 [2]?
Answer: Not Active

Question: And the IC50 [3]?
Answer: 336 µM

Question: What does the source list for CC1(C)CCC[C@]2(C)[C@@H]1C(=O)[C@H](O)[C@@]13C[C@H](CC[C@@H]21)[C@@](O)(CO)C3 [BROUSSONETONE B]?
Answer: IC50 [1]: 317 µM; IC50 [2]: Not Active; IC50 [4]: Not Active

Question: CC1(C)OC[C@]2(C[C@]34C[C@@H]2CC[C@H]3[C@]2(C)CCCC(C)(C)[C@H]2C(=O)[C@H]4O)O1 [BROUSSONETONE C] was tested. Which IC50 [1] did it give?
Answer: 323 µM

Question: What about the IC50 [2] of the same compound?
Answer: Not Active

Question: And the IC50 [3]?
Answer: 353 µM

Question: For COc1ccc(O)c(C(C)(C)C)c1.COc1ccc(O)cc1C(C)(C)C [BUTYLATED HYDROXYANISOLE], which IC50 [2] is on record?
Answer: 79.2 µM

Question: With O=c1cc(-c2ccc(O)cc2)oc2c([C@@H]3O[C@H](CO)[C@@H](O)[C@H](O)[C@H]3O)c(O)cc(O)c12 [VITEXIN] as the compound, how does the IC50 [2] read?
Answer: Not Active

Question: What about the IC50 [4] of the same compound?
Answer: Not Active

Question: And the IC50 [5]?
Answer: Not Active
